In patent US11655232B2 (Celgene Corporation, priority 2003, dated 2023):
In brackets after ≈: the same amount, converted by molar mass. Like-named read-outs stand apart in the source and are kept apart here.

Key:
[1] = Moisture sorption/desorption; assay type: physicochemical
Method: Moisture sorption/desorption data were collected on a VTI SGA-100 moisture balance system. For sorption isotherms, a sorption range of 5 to 95% relative humidity (RH) and a desorption range of 95 to 5% RH in 10% RH increments was used for analysis. The sample was not dried prior to analysis. Equilibrium criteria used for analysis were less than 0.0100 weight percent change in 5 minutes with a maximum equilibration time of 3 hours if the weight criterion was not met. Data were not corrected for the initial moisture content of the samples.

[2] = Intrinsic dissolution (Woods apparatus); assay type: physicochemical
Method: Dissolution experiments were carried out in a VanKel VK6010-8 dissolution apparatus equipped with a VK650A heater/circulator. An intrinsic dissolution apparatus (Woods apparatus) was used. Samples were compressed at 1.5 metric tons (1000 psi) for 1 min using the Woods apparatus in a hydraulic press, giving a sample surface of 0.50 cm^2. […] The medium was degassed by vacuum filtration through a 0.22-μm nylon filter disk and maintained at 37° C. The apparatus was rotated at 50 rpm for each experiment. Aliquots were filtered immediately using 0.2-μm nylon syringe filters. In some cases, the undissolved solids were recovered and analyzed by X-ray powder diffraction (XRPD).
Diffracted radiation was detected by a NaI scintillation detector.

physchem = details: 25 °C, pH 1.8, aqueous with cosolvent or surfactant or cyclodextrin, thermodynamic from solid
Method: (§1) A solid sample of 400-450 mg was stirred in 50 mL of dissolution medium (HCl buffer, pH 1.8, with 1% sodium lauryl sulfate) using a mechanical stir rod. Aliquots were filtered using 0.2-μm nylon syringe filters and immediately diluted 1 mL→50 mL, then 5 mL→25 mL with dissolution medium in Class A glassware, a final dilution factor of 250.
(§2) Dissolution and solubility samples solutions were analyzed by a Beckman DU 640 single-beam spectrophotometer. A 1.000-cm quartz cuvette and an analysis wavelength of 228.40 nm were utilized. The detector was zeroed with a cuvette filled with dissolution medium.
(§3) XRPD analyses were carried out on a Shimadzu XRD-6000 X-ray powder diffractometer using Cu Kα radiation. The instrument is equipped with a fine focus X-ray tube. The tube power and amperage were set at 40 kV and 40 mA, respectively. The divergence and scattering slits were set at 1° and the receiving slit was set at 0.15 mm. Diffracted radiation was detected by a NaI scintillation detector. A theta-two theta continuous scan at 3°/min (0.4 sec/0.02° step) from 2.5 to 40°2θ was used. A silicon standard was analyzed each day to check the instrument alignment. Samples were packed in an aluminum holder with silicon insert.

[3] = pH 1.8
Method: as §1, §2, §3

[4] = Temperature/relative humidity stress storage; assay type: physicochemical
Desolvation by heating = assay type: physicochemical; details: about 125° C. for about five minutes

For `Nc1cccc2c1CN(C1CCC(=O)NC1=O)C2=O` (stereo not shown) [Form E, 3-(4-amino-1-oxo-1,3 dihydro-isoindol-2-yl)-piperidine-2,6-dione], the “weight lost from start to finish” value ([1]; at 5% relative humidity after drying from 95% back down to 5%) was “about 0.0528 % by weight”, the “weight gain on moisture sorption” value ([1]; from 5 to 95% relative humidity) was “does not exhibit a significant weight change” and the “Cumulative Amount Dissolved per Unit Area” value ([2]; Experiment #1, 5 min) was 2.70 mg/cm2. For the same compound, the “Cumulative Amount Dissolved per Unit Area” value ([2]; Experiment #1, 10 min) was 4.13 mg/cm2, the “Cumulative Amount Dissolved per Unit Area” value ([2]; Experiment #1, 20 min) was 6.96 mg/cm2 and the “Cumulative Amount Dissolved per Unit Area” value ([2]; Experiment #1, 30 min) was 9.60 mg/cm2. For the same compound, the “Cumulative Amount Dissolved per Unit Area” value ([2]; Experiment #1, 45 min) was 12.57 mg/cm2, the “Cumulative Amount Dissolved per Unit Area” value ([2]; Experiment #1, 60 min) was 15.16 mg/cm2 and the “Cumulative Amount Dissolved per Unit Area” value ([2]; Experiment #1, 90 min) was 20.82 mg/cm2. The “Cumulative Amount Dissolved per Unit Area” value ([2]; Experiment #2, 5 min) was 3.06 mg/cm2, the “Cumulative Amount Dissolved per Unit Area” value ([2]; Experiment #2, 10 min) was 4.31 mg/cm2 and the “Cumulative Amount Dissolved per Unit Area” value ([2]; Experiment #2, 20 min) was 11.40 mg/cm2. The “Cumulative Amount Dissolved per Unit Area” value ([2]; Experiment #2, 30 min) was 11.93 mg/cm2, the “Cumulative Amount Dissolved per Unit Area” value ([2]; Experiment #2, 45 min) was 14.72 mg/cm2 and the “Cumulative Amount Dissolved per Unit Area” value ([2]; Experiment #2, 60 min) was 18.52 mg/cm2. The “Cumulative Amount Dissolved per Unit Area” value ([2]; Experiment #2, 90 min) was 26.24 mg/cm2, the “Cumulative Amount Dissolved per Unit Area” value ([2]; Experiment #2, 120 min) was 33.56 mg/cm2 and the “Cumulative Amount Dissolved per Unit Area” value ([2]; Experiment #2, 150 min) was 40.82 mg/cm2. For the same compound, the dissolution rates (estimated) ([2]; HCl buffer pH 1.8, 1% sodium lauryl sulfate) was 0.23 mg/cm²/min, the “Final Form of undissolved solids after intrinsic dissolution (XRPD)” value ([2]; HCl buffer pH 1.8, 1% sodium lauryl sulfate, 37° C.) was “did not change” and the “Average Intrinsic Dissolution Rate” value ([2]; average of experiments #1 and #2) was 0.23 mg per cm^2 per minute. The “Intrinsic Dissolution #1 (rate)” value ([2]; experiment #1, 900 mL HCl buffer pH 1.8, 1% sodium lauryl sulfate, 37° C., 50 rpm) was 0.21 mg per cm^2 per minute, the “Intrinsic Dissolution #2 (rate)” value ([2]; experiment #2, HCl buffer pH 1.8, 1% sodium lauryl sulfate, 37° C., 50 rpm) was 0.25 mg per cm^2 per minute and the Solubility (physchem) was 4700 µg/mL (≈ 18.1 mM). The Solubility [3] was 4700 µg/mL (≈ 18.1 mM), the “form after stress storage” value ([4]; about 85 days, room temperature/0% RH and 40° C./93% RH) was “typically does not convert to a different form” and the “form after stress storage” value ([4]; seven days at room temperature/0% RH) was “can convert to a new form, Form H”. For the same compound, the “form after heating (desolvation)” value (Desolvation by heating) was “can convert to Form B”.
